Measurements published in EP3495350B1, “COMPOUND INHIBITING FORMATION OF C-MYC/MAX/DNA COMPLEX” (National Cancer Center, priority 2016, dated 2018).

Tests used:
UM-UC-3 = assay: Cell based assay, cell viability (CellTiter-Glo), UM-UC-3; conditions: Homo sapiens, UMUC3; 72 hours, 0 to 2 µM; read-out: cell based assay cell line 4 UM-UC-3 IC50
Experimental: (§1) Commercially available bladder cancer cell lines were treated with trypsin-EDTA and seeded in each well of a 96 well plate, followed by incubation for 24 hours. After incubation, candidate compounds were added to each well at a final concentration of 0 to 2 µM. The compound-treated cells were further incubated for 72 hours. Cell viability was measured using an ATP detection method (CellTiter-Glo Luminescent Cell Viability Assay, Promega).
(§2) The selectivity of the compounds of the present disclosure to cancer cells was evaluated in the same manner as described in "2. Cell based assay".

KU19-19 = assay: Cell based assay, cell viability (CellTiter-Glo), KU19-19; conditions: Homo sapiens, KU-19-19; 72 hours, 0 to 2 µM; read-out: cell based assay cell line 2 KU19-19 IC50
Experimental: as §1, §2

MBT-2 = assay: Cell based assay, cell viability (CellTiter-Glo), MBT-2; conditions: 72 hours, 0 to 2 µM; read-out: cell based assay cell line 1 MBT-2 IC50
Experimental: as §1, §2

253J = assay: Cell based assay, cell viability (CellTiter-Glo), 253J; conditions: Homo sapiens; 72 hours, 0 to 2 µM; read-out: cell based assay cell line 3 253J IC50
Experimental: as §1, §2

Row | Structure (SMILES) | IC50 (UM-UC-3) [nM] | IC50 (KU19-19) [nM] | IC50 (MBT-2) [nM] | IC50 (253J) [nM]
1 | COc1cc(S(F)(F)(F)(F)F)ccc1C[S+]([O-])c1[nH]c2c(Br)ccc(Cl)c2c(=O)c1C(C)=O (centres unmarked) [Compound 75, 3-acetyl-8-bromo-5-chloro-2-((2-methoxy-4-(pentafluoro-λ6-sulfanyl)benzyl)sulfinyl)quinolin-4(1H)-one] | 1010 | 1210 | 1050 | 860
2 | CC(=O)c1c([S+]([O-])Cc2cc(F)cc(S(F)(F)(F)(F)F)c2)[nH]c2c(Br)ccc(Cl)c2c1=O (centres unmarked) [Compound 76, 3-acetyl-8-bromo-5-chloro-2-((3-fluoro-5 - (pentafluoro-λ6-sulfanyl)benzyl)sulfinyl)quinolin-4(1H)-one] | 1390 | 1860 | 1860 | 1240
3 | CC(=O)c1c([S+]([O-])Cc2cccc(S(F)(F)(F)(F)F)c2)[nH]c2c(Br)ccc(Cl)c2c1=O (centres unmarked) [Compound 77, 3-acetyl-8-bromo-5-chloro-2-((3-(pentafluoro-λ6-sulfanyl)benzyl)sulfinyl)quinolin-4(1H)-one] | 1180 | 1380 | 1450 | 900
4 | CC(=O)c1c([S+]([O-])Cc2c(F)c(F)c(F)c(F)c2F)[nH]c2c(Br)ccc(Cl)c2c1=O (centres unmarked) [Compound 78, 3-acetyl-8-bromo-5-chloro-2-(((perfluorophenyl)methyl)sulfinyl)quinolin-4(1H)-one] | 1390 | > 2000 | 1530 | 1290
5 | CC(=O)c1c([S+]([O-])Cc2ccc(SC(F)(F)F)cc2)[nH]c2c(Cl)ccc(Cl)c2c1=O (centres unmarked) [Compound 79, 3-acetyl-5,8-dichloro-2-((4-((trifluoromethyl)thio)benzyl)sulfinyl)quinolin-4(1H)-one] | > 2000 | > 2000 | > 2000 | > 2000
6 | CC(=O)c1c([S+]([O-])Cc2ccc(S(F)(F)(F)(F)F)cc2)[nH]c2c(F)ccc(F)c2c1=O (centres unmarked) [Compound 80, 3-acetyl-5,8-difluoro-2-((4-(pentafluoro-λ6-sulfanyl)benzyl)sulfinyl)quinolin-4(1H)-one] | > 2000 | > 2000 | > 2000 | > 2000
7 | CC(=O)c1c([S+]([O-])Cc2ccc(C(F)(F)F)o2)[nH]c2c(F)ccc(F)c2c1=O (centres unmarked) [Compound 81, 3-acetyl-5,8-difluoro-2-(((5-(trifluoromethyl)furan-2-yl)methyl)sulfinyl)quinolin-4(1H)-one] | > 2000 | > 2000 | > 2000 | > 2000
8 | CC(=O)c1c([S+]([O-])Cc2cc(C)on2)[nH]c2c(F)ccc(F)c2c1=O (centres unmarked) [Compound 82, 3-acetyl-5,8-difluoro-2-(((5-methylisoxazol-3 - yl)methyl)sulfinyl)quinolin-4(1H)-one] | > 2000 | > 2000 | > 2000 | > 2000
9 | CC(=O)c1c([S+]([O-])Cc2ccc(I)cc2)[nH]c2c(Cl)ccc(Cl)c2c1=O (centres unmarked) [Compound 83, 3-acetyl-5,8-dichloro-2-((4-iodobenzyl)sulfinyl)quinolin-4(1H)-one] | 1310 | 1600 | 1350 | 1420
10 | CC(=O)c1c([S+]([O-])Cc2cccnc2)[nH]c2c(Br)ccc(Cl)c2c1=O (centres unmarked) [Compound 84, 3-acetyl-8-bromo-5-chloro-2-((pyridin-3-ylmethyl)sulfinyl)quinolin-4(1H)-one] | 760 | 1500 | 670 | 870
11 | CC(C)C(=O)c1c([S+]([O-])Cc2ccc(SC(F)(F)F)cc2)[nH]c2c(F)ccc(F)c2c1=O (centres unmarked) [Compound 85, 5,8-difluoro-3-isobutyryl-2-((4-((trifluoromethyl)thio)benzyl)sulfinyl)quinolin-4(1H)-one] | > 2000 | > 2000 | > 2000 | > 2000
12 | Cc1cc(C[S+]([O-])c2[nH]c3c(Cl)ccc(Cl)c3c(=O)c2C(=O)C(C)C)no1 (centres unmarked) [Compound 86, 5,8-dichloro-3-isobutyryl-2-(((5 - methylisoxazol-3-yl)methyl)sulfinyl)quinolin-4(1H)-one] | 1260 | 1410 | 810 | 1060
13 | O=C(c1ccccc1)c1c([S+]([O-])Cc2ccc(S(F)(F)(F)(F)F)cc2)[nH]c2c(F)ccc(F)c2c1=O (centres unmarked) [Compound 87, 3-benzoyl-5,8-difluoro-2-((4-(pentafluoro-λ6-sulfanyl)benzyl)sulfinyl)quinolin-4(1H)-one] | > 2000 | > 2000 | > 2000 | > 2000
14 | Cc1cc(C[S+]([O-])c2[nH]c3c(Cl)ccc(Cl)c3c(=O)c2C(=O)c2ccccc2)no1 (centres unmarked) [Compound 88, 3-benzoyl-5,8-dichloro-2-(((5-methylisoxazol-3-yl)methyl)sulfinyl)quinolin-4(1H)-one] | > 2000 | > 2000 | > 2000 | > 2000
15 | COC(=O)c1ccc(C[S+]([O-])c2[nH]c3c(Cl)ccc(Cl)c3c(=O)c2C(C)=O)o1 (centres unmarked) [Compound 89, methyl 5-(((3-acetyl-5,8-dichloro-4-oxo-1,4-dihydroquinolin-2-yl)sulfinyl)methyl)furan-2-carboxylate] | 1470 | > 2000 | 1270 | 1840
16 | COC(=O)c1ccc(C[S+]([O-])c2[nH]c3c(Cl)ccc(Cl)c3c(=O)c2C(C)=O)cc1 (centres unmarked) [Compound 91, methyl 4-(((3-acetyl-5,8-dichloro-4-oxo-1,4-dihydroquinolin-2-yl)sulfinyl)methyl)benzoate] | 1560 | > 2000 | 1370 | > 2000
17 | COc1cccc2[nH]c([S+]([O-])Cc3ccc(S(F)(F)(F)(F)F)cc3)c(C(C)=O)c(=O)c12 (centres unmarked) [Compound 93, 3-acetyl-5-methoxy-2-((4-(pentafluoro-λ6-sulfanyl)benzyl)sulfinyl)quinolin-4(1H)-one] | > 2000 | > 2000 | > 2000 | > 2000
18 | COc1cccc2[nH]c([S+]([O-])Cc3cc(C)on3)c(C(C)=O)c(=O)c12 (centres unmarked) [Compound 94, 3-acetyl-5-methoxy-2-(((5-methylisoxazol-3 - yl)methyl)sulfinyl)quinolin-4(1H)-one] | > 2000 | > 2000 | 1530 | > 2000
19 | Cc1cc(C[S+]([O-])c2[nH]c3c(Br)ccc(Cl)c3c(=O)c2C(=O)C(C)C)no1 (centres unmarked) [Compound 95, 8-bromo-5-chloro-3-isobutyryl-2-(((5-methylisoxazol-3-yl)methyl)sulfinyl)quinolin-4(1H)-one] | 1060 | 1290 | 800 | 770
20 | Cc1cc(C[S+]([O-])c2[nH]c3c(Br)ccc(Cl)c3c(=O)c2C(=O)C2CC2)no1 (centres unmarked) [Compound 96, 8-bromo-5-chloro-3-(cyclopropanecarbonyl)-2-(((5-methylisoxazol-3-yl)methyl)sulfinyl)quinolin-4(1H)-one] | 1630 | > 2000 | 1060 | 1490
21 | Cc1cc(C[S+]([O-])c2[nH]c3c(Cl)ccc(Cl)c3c(=O)c2C(=O)C2CC2)no1 (centres unmarked) [Compound 97, 5,8-dichloro-3-(cyclopropanecarbonyl)-2-(((5 - methylisoxazol-3-yl)methyl)sulfinyl)quinolin-4(1H)-one] | 1270 | 1620 | 810 | 1200
22 | CC(=O)c1c([S+]([O-])Cc2ccc(C#N)s2)[nH]c2c(Br)ccc(Cl)c2c1=O (centres unmarked) [Compound 98, 5-(((3-acetyl-8-bromo-5-chloro-4-oxo-1,4-dihydroquinolin-2-yl)sulfinyl)methyl)thiophene-2-carbonitrile] | 1520 | 1900 | 840 | 1380
23 | CC(=O)c1c([S+]([O-])Cc2ccc(-n3cccn3)nc2)[nH]c2c(Br)ccc(Cl)c2c1=O (centres unmarked) [Compound 99, 2-(((6-(1H-pyrazol-1-yl)pyridin-3-yl)methyl)sulfinyl)-3-acetyl-8-bromo-5-chloroquinolin-4(1H)-one] | 770 | 1120 | 470 | 800
24 | CC(=O)c1c([S+]([O-])Cc2ccc(N)nc2)[nH]c2c(Br)ccc(Cl)c2c1=O (centres unmarked) [Compound 100, 3-acetyl-2-(((6-aminopyridin-3-yl)methyl)sulfinyl)-8-bromo-5-chloroquinolin-4(1H)-one] | > 2000 | > 2000 | > 2000 | > 2000
25 | O=C(c1c([S+]([O-])Cc2ccc(SC(F)(F)F)cc2)[nH]c2c(Br)ccc(Cl)c2c1=O)C1CC1 (centres unmarked) [Compound 101, 8-bromo-5-chloro-3-(cyclopropanecarbonyl)-2-((4-((trifluoromethyl)thio)benzyl)sulfinyl)quinolin-4(1H)-one] | 1930 | > 2000 | > 2000 | 1820
26 | CC(=O)c1c([S+]([O-])Cc2ccc(C(F)(F)F)nc2C)[nH]c2c(Br)ccc(Cl)c2c1=O (centres unmarked) [Compound 102, 3-acetyl-8-bromo-5-chloro-2-(((2-methyl-6-(trifluoromethyl)pyridin-3-yl)methyl)sulfinyl)quinolin-4(1H)-one] | 1070 | 1580 | 770 | 830
